From paper PMC10574094, “Discovery of a SHP2 Degrader with In Vivo Anti-Tumor Activity” (Molecules, 2023)

Tests used:
CDC-14A = CDC-14A (Homo sapiens, UniProt Q9UNH5); experiment: PTP inhibition assay (pNPP); type: biochemical
Description: (§1) PTP activity was assayed using p-nitrophenyl phosphate (pNPP) as a substrate in DMG buffer (50 mM DMG, pH 7.0, 1 mM EDTA, 150 mM NaCl, 2 mM DTT, 0.1 mg/mL BSA) at 25 °C. The assays were performed in 96-well plates. To determine the IC50 values, the reaction was initiated by the addition of enzyme (final concentration = 10 nM) to a reaction mixture (0.2 mL) containing pNPP (at a final concentration close to the Kms of tested enzymes, in specific: 0.05 mM for CDC-14A; 0.5 mM for FAP-1; 2 mM for TC-PTP, PTP1B, STEP, LWM-PTP, and PTPα; 3 mM for SHP1; 4 mM for Laforin; 5 mM for LYP, CD45, and VHR; 6 mM for PTP-MEG2 and HePTP) with various concentrations of inhibitors. The reaction rate was measured using a SpectraMax Plus 384 Microplate Spectrophotometer (Molecular Devices, San Jose, CA, USA). Data were fitted using the SigmaPlot Enzyme Kinetics Module (Systat Software, Inc., San Jose, CA, USA).

PTP1B = PTP1B (Homo sapiens, UniProt P18031); experiment: PTP inhibition assay (pNPP); type: biochemical
Chain of PTP1B (P18031 whole entry, species assumed): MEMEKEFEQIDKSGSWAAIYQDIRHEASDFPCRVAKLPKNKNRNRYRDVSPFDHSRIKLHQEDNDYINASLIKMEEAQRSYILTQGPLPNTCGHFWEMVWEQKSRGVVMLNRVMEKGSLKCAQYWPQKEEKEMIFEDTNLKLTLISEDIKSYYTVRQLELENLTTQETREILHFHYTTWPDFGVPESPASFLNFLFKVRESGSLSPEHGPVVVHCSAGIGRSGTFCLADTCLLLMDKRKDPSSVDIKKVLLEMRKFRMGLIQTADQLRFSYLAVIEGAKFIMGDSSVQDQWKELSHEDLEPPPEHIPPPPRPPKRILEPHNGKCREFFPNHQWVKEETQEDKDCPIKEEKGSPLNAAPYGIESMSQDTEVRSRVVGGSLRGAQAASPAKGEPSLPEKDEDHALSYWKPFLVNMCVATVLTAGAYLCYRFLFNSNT
Description: as §1

LMW-PTP = LMW-PTP (Homo sapiens, UniProt P24666); experiment: PTP inhibition assay (pNPP); type: biochemical
Chain of LMW-PTP (P24666 whole entry, species assumed): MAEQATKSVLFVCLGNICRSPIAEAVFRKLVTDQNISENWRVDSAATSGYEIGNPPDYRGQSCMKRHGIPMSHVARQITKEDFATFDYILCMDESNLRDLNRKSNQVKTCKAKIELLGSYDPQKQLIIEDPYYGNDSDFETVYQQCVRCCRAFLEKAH
Description: as §1

SHP1 = SHP1 (Homo sapiens, UniProt P29350); experiment: PTP inhibition assay (pNPP); type: biochemical
Chain of SHP1 (P29350 whole entry): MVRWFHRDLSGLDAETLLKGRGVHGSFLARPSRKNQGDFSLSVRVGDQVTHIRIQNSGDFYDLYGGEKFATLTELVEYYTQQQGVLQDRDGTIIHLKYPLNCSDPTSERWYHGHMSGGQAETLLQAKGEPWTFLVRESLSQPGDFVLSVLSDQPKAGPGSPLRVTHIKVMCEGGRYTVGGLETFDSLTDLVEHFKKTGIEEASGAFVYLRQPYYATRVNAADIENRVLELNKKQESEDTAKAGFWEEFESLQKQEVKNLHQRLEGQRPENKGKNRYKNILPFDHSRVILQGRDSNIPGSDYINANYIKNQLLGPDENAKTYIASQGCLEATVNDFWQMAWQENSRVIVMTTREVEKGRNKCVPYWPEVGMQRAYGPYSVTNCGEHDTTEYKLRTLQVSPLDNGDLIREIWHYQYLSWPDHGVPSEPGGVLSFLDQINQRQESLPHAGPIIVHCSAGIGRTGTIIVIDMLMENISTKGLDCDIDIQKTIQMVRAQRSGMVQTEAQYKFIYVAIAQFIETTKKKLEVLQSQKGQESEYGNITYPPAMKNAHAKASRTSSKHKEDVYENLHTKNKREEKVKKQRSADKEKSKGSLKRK
Description: as §1

PTP-α = PTP-α (Homo sapiens, UniProt P18433); experiment: PTP inhibition assay (pNPP); type: biochemical
Description: as §1

TC-PTP = TC-PTP (Homo sapiens, UniProt P17706); experiment: PTP inhibition assay (pNPP); type: biochemical
Chain of TC-PTP (P17706 whole entry, species assumed): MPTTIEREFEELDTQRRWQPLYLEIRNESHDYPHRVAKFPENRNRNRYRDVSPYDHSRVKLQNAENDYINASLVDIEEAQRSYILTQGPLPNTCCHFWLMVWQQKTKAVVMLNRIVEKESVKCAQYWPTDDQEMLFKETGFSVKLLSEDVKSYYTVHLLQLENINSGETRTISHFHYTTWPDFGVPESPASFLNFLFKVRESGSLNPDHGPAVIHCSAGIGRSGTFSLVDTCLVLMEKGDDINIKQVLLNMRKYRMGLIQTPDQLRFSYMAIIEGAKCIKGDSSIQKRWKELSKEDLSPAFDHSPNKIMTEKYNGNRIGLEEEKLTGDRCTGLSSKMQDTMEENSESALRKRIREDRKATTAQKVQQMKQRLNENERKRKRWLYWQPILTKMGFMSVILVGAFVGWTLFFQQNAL
Description: as §1

HePTP = HePTP (Homo sapiens, UniProt P35236); experiment: PTP inhibition assay (pNPP); type: biochemical
Chain of HePTP (P35236 whole entry, species assumed): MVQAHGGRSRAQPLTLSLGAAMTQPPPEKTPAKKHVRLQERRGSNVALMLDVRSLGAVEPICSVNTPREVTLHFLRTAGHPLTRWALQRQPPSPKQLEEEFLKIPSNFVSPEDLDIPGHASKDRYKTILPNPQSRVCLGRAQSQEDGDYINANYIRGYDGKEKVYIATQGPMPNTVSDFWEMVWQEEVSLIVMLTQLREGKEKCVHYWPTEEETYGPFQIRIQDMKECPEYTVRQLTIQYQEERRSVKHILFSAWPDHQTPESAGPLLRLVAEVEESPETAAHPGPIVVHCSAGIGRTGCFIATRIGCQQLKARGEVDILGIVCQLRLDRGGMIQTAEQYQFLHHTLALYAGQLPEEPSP
Description: as §1

PTP-MEG2 = PTP-MEG2 (Homo sapiens, UniProt P43378); experiment: PTP inhibition assay (pNPP); type: biochemical
Chain of PTP-MEG2 (P43378 whole entry): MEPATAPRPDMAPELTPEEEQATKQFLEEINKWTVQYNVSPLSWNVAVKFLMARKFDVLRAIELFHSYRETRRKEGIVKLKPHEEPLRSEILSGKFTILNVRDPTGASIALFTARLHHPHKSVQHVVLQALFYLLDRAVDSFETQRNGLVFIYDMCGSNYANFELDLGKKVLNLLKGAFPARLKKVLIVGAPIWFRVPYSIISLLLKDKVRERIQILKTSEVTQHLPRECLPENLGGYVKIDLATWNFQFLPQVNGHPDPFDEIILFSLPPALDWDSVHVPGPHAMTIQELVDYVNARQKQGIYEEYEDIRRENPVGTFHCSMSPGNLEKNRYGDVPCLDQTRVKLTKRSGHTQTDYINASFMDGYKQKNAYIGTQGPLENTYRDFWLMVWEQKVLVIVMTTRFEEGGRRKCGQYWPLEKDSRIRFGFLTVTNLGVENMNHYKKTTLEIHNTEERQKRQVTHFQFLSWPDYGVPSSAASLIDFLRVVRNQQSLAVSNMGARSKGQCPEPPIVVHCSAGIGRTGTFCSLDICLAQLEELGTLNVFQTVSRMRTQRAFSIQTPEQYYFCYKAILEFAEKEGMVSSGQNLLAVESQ
Description: as §1

CD45 = CD45 (Homo sapiens, UniProt P08575); experiment: PTP inhibition assay (pNPP); type: biochemical
Description: as §1

FAP-1 = FAP-1 (Homo sapiens, UniProt Q12923); experiment: PTP inhibition assay (pNPP); type: biochemical
Description: as §1

LYP = LYP (Homo sapiens, UniProt Q9Y2R2); experiment: PTP inhibition assay (pNPP); type: biochemical
Chain of LYP (Q9Y2R2 whole entry, species assumed): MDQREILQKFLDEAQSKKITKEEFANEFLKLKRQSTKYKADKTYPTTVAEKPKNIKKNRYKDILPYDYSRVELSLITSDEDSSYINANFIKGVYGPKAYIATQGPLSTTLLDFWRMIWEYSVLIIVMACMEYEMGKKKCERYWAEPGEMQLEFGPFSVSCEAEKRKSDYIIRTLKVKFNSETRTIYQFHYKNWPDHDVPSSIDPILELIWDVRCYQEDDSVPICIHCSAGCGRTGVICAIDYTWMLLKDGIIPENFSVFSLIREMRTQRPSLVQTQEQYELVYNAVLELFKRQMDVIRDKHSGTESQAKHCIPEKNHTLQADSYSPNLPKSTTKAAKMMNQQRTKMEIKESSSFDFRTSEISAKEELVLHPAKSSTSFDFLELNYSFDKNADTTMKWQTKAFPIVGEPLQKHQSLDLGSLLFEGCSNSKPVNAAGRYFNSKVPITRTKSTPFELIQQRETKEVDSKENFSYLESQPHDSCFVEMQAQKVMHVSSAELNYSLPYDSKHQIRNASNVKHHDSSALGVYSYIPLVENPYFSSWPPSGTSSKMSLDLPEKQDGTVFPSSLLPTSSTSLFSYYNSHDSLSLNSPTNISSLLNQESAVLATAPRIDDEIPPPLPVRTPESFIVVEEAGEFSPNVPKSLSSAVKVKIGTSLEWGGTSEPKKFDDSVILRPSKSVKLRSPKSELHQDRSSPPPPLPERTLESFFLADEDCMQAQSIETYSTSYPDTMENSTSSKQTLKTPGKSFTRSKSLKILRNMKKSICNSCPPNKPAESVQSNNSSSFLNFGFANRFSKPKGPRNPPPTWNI
Description: as §1

Laforin = Laforin (Homo sapiens, UniProt O95278); experiment: PTP inhibition assay (pNPP); type: biochemical
Description: as §1

VHR = VHR (Homo sapiens, UniProt P51452); experiment: PTP inhibition assay (pNPP); type: biochemical
Chain of VHR (P51452 whole entry, species assumed): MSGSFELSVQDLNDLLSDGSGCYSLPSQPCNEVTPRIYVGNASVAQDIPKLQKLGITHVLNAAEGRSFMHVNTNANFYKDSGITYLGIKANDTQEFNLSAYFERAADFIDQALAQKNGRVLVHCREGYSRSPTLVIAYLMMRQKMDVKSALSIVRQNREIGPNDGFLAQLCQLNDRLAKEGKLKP
Description: as §1

STEP = STEP (Homo sapiens, UniProt P54829); experiment: PTP inhibition assay (pNPP); type: biochemical
Chain of STEP (P54829 whole entry, species assumed): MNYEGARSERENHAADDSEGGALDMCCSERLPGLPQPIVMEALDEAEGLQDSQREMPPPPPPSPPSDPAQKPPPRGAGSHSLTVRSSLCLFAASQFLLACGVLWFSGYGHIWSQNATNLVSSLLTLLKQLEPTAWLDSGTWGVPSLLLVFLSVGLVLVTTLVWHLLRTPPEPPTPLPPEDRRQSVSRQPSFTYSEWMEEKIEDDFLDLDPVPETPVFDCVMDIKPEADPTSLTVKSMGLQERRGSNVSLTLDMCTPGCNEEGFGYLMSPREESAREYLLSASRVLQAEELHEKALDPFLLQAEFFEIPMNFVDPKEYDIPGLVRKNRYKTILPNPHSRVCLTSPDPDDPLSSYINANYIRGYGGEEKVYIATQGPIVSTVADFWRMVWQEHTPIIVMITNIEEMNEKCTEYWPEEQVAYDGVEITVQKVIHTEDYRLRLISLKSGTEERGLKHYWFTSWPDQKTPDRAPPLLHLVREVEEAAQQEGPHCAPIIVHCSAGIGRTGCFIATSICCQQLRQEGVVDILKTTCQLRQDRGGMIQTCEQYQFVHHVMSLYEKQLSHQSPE
Description: as §1

[1] = system: KYSE-520, SKBR3, U2OS, MCF7, H358 and A549 cells; experiment: Colony formation assay; type: cell-based; details: 3 weeks treatment
Description: HEK293, SKBR3, U2OS, MCF7 and A549 cells were grown in DMEM supplemented with 10% FBS, penicillin (50 units/mL), and streptomycin (50 μg/mL) in a 37 °C incubator containing 5% CO2. KYSE-520 and H358 cells were grown in RPMI-1640 supplemented with 10% FBS, penicillin (50 units/mL), and streptomycin (50 μg/mL) in a 37 °C incubator containing 5% CO2. For western-blot analysis, protein samples were separated by SDS-PAGE, transferred to nitrocellulose membranes, and incubated overnight at 4 °C with corresponding primary antibodies diluted in 5% BSA in phosphate-buffered saline Tween (PBST). SuperSignal™ West Pico PLUS (PI34580; Thermo Scientific) was used to visualize the antibodies in the bioanalytical imaging system (Azure Biosystems c500). Anti-p-ERK1/2 (T202/Y204) (4370), and anti-ERK1/2 (4696) were purchased from Cell Signaling Technology. Anti-GAPDH (sc-365062), anti-SHP2 (sc-7384), anti-SHP1 (sc-7289), and anti-Actin (sc-8432) antibodies were purchased from Santa Cruz. Anti-PTP1B (ab244207) antibody was purchased from Abcam. For colony formation assay, a total of approximately 200–500 cells were seeded to each well in a 12-well plate. The wells were then treated with DMSO, compound P9 and 3 at 37 °C for 3 weeks, gently washed, and stained with crystal violet.

Chain of CDC-14A (Q9UNH5 whole entry, species assumed): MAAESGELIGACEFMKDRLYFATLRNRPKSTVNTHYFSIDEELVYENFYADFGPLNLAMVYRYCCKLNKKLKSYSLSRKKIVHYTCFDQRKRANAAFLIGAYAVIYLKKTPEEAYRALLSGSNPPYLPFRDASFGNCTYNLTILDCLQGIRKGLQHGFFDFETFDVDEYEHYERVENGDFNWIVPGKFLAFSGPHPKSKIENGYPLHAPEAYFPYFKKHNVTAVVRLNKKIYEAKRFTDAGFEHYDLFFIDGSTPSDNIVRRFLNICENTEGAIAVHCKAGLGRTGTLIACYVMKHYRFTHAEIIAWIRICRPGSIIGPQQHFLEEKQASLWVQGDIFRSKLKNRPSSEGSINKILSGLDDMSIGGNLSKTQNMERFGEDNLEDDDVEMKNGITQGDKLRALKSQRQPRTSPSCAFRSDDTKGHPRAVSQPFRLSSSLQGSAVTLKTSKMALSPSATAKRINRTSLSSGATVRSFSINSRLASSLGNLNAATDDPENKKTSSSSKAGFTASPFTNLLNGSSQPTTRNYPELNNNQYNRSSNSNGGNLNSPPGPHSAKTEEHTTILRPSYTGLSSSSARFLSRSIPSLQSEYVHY

Cc1ncsc1-c1ccc([C@H](C)NC(=O)[C@@H]2C[C@@H](O)CN2C(=O)[C@@H](NC(=O)CCCCCCCCCN2CCN(C(=O)CCCCCC3(CN)CCN(c4cnc(Sc5cccc(Cl)c5Cl)c(N)n4)CC3)CC2)C(C)(C)C)cc1 [P9, (2S,4R)-1-((S)-2-(10-(4-(6-(1-(6-amino-5-((2,3-dichlorophenyl)thio)pyrazin-2-yl)-4-(aminomethyl)piperidin-4-yl)hexanoyl)piperazin-1-yl)decanamido)-3,3-dimethylbutanoyl)-4-hydroxy-N-((S)-1-(4-(4-methylthiazol-5-yl)phenyl)ethyl)pyrrolidine-2-carboxamide]
Fold selectivity CDC-14A (CDC-14A; over SHP2): > 105
IC50 (CDC-14A; pNPP 0.05 mM): > 10 µM
Fold selectivity PTP1B (PTP1B; over SHP2): > 105
IC50 (PTP1B; pNPP 2 mM): > 10 µM
Fold selectivity LMW-PTP (LMW-PTP; over SHP2): > 105
IC50 (LMW-PTP; pNPP 2 mM): > 10 µM
Fold selectivity SHP1 (SHP1; over SHP2): > 105
IC50 (SHP1; pNPP 3 mM): > 10 µM
Fold selectivity PTP-α (PTP-α; over SHP2): > 105
IC50 (PTP-α; pNPP 2 mM): > 10 µM
Fold selectivity TC-PTP (TC-PTP; over SHP2): > 105
IC50 (TC-PTP; pNPP 2 mM): > 10 µM
Fold selectivity HePTP (HePTP; over SHP2): > 105
IC50 (HePTP; pNPP 6 mM): > 10 µM
Fold selectivity PTP-MEG2 (PTP-MEG2; over SHP2): > 105
IC50 (PTP-MEG2; pNPP 6 mM): > 10 µM
Fold selectivity CD45 (CD45; over SHP2): > 105
IC50 (CD45; pNPP 5 mM): > 10 µM
Fold selectivity FAP-1 (FAP-1; over SHP2): > 105
IC50 (FAP-1; pNPP 0.5 mM): > 10 µM
Fold selectivity LYP (LYP; over SHP2): > 105
IC50 (LYP; pNPP 5 mM): > 10 µM
Fold selectivity Laforin (Laforin; over SHP2): > 105
IC50 (Laforin; pNPP 4 mM): > 10 µM
Fold selectivity VHR (VHR; over SHP2): > 105
IC50 (VHR; pNPP 5 mM): > 10 µM
Fold selectivity STEP (STEP; over SHP2): > 105
IC50 (STEP; pNPP 2 mM): > 10 µM
growth inhibition in colony formation assay compared with compound 3 [1]: improved efficacy in inhibiting the growth of these cancer cells
